According to patent US8273769B2, “Phenoxy acetic acid derivatives” (Merck Serono SA, priority 2009, dated 2012):

Molecular target: T1, CRTH2 (Homo sapiens, UniProt Q9Y5Y4)
T1 sequence (Q9Y5Y4 1-395): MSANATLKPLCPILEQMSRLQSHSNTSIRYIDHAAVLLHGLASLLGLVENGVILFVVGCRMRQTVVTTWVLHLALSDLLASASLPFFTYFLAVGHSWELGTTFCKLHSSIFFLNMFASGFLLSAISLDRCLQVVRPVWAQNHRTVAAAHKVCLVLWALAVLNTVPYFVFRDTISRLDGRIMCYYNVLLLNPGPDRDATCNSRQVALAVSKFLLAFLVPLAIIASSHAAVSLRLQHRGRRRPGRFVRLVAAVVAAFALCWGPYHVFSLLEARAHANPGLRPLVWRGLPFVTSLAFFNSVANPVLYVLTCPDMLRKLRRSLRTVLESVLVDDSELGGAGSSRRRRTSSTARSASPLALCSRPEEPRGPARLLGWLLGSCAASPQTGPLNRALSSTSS
Test: Radioligand binding Scintillation Proximity Assay ([3H]PGD2, hCRTH2-CHO cell membranes)
Design: host or cells: CHO cells
Settings: 1.5 nM [3H]PGD2, hCRTH2-CHO cell membranes, SPA
Protocol: Adherent CHO cells expressing hCRTH2 (Euroscreen, Belgium) were cultured in 225 cm^2 cell culture flasks (Corning, USA) in 30 ml of medium. After two rinses of phosphate buffered saline (PBS), cells were harvested in 10 ml of PBS containing 1 mM EDTA, centrifuged at 500×g for 5 min at 4° C. and frozen at −80° C. The pellet was re-suspended in 50 mM Tris-HCl, pH 7.4, 2 mM EDTA, 250 mM Sucrose, containing protease inhibitor cocktail tablets, (Complete EDTA-free, Roche, Germany) and incubated 30 min at 4° C. Cells were disrupted by nitrogen cavitation (Parr Instruments, USA) at 4° C. (800 p.s.i. for 30 min), and centrifuged at 500×g for 10 min at 4° C. Pellet containing nuclei and cellular debris was discarded and supernatant was centrifuged 60 min at 4° C. at 45000×g. Membrane pellet was re-suspended in storage buffer (10 mM HEPES/KOH pH 7.4, 1 mM EDTA, 250 mM sucrose, protease inhibitor cocktail tablets) using Dounce homogenization and frozen in liquid nitrogen, and stored at −80° C.
The inhibitory activity can be investigated by a radioligand binding Scintillation Proximity Assay (SPA) (Sawyer et al., Br. J. Pharmocol 2002, 137, 1163-72). The SPA radioligand binding assay was performed at room temperature in binding buffer (10 mM HEPES/KOH pH 7.4, 10 mM MnCl2, with protease inhibitor cocktail tablets), containing 1.5 nM [^3H]PGD2 (Perkin Elmer), 10-50 μg/ml of hCRTH2-CHO cell membrane protein and 2 mg/ml of Wheat-germ agglutinin Sintillation Proximity Assay beads (RPNQ0001, GE-Healthcare) in a final volume of 100 μl in 96 well plates (Corning, USA). Non-specific binding was determined in the presence of 10 μM PGD2 (Cayman, USA). Competing Compounds of Formula (I) were diluted in dimethylsulphoxide so that the total volume of dimethylsulfoxide was kept constant at 1% dimethylsulphoxide (Me2SO). Serial dilutions of 100 μM to 100 pM were prepared and 10 μl each of the compounds of Formula (I) stock solutions were added to the binding assay reagents and incubated for 90 min with agitation at room temperature. Binding activity was determined by using a 1450 Micro-beta scintillation counter (Wallac, UK).

## COC1c2ccc(C#Cc3cc(Cl)ccc3OCC(=O)O)cc2S(=O)(=O)C1(C)C (stereo not drawn) [Example 161, {4-chloro-2-[(3-methoxy-2,2-dimethyl-1,1-dioxido-2,3-dihydro-1-benzothien-6-yl)ethynyl]phenoxy}acetic acid]
  IC50: 24 nM

## N#Cc1ccc(OCC(=O)O)c(C#Cc2cncc(S(=O)(=O)N3CC(F)(F)C3)c2)c1 [Example 76, [4-cyano-2-({5-[(3,3-difluoroazetidin-1-yl)sulfonyl]pyridin-3-yl}ethynyl)phenoxy]acetic acid]
  IC50: 171 nM

## CS(=O)(=O)c1ccc(C#Cc2cc(Cl)ccc2OCC(=O)O)cc1 [Example 90, (4-chloro-2-{[4-(methylsulfonyl)phenyl]ethynyl}phenoxy)acetic acid]
  IC50: 154 nM

## Cc1ccc(S(=O)(=O)N2CCN(C)CC2)cc1C#Cc1cc(Cl)ccc1OCC(=O)O [Example 112, [4-chloro-2-({2-methyl-5-[(4-methylpiperazin-1-yl)sulfonyl]phenyl}ethynyl)phenoxy]acetic acid]
  IC50: 27 nM

## O=C(O)COc1ccc(Cl)cc1C#Cc1cncc(S(=O)(=O)N2CCOCC2)c1 [Example 79, (4-chloro-2-{[5-(morpholin-4-ylsulfonyl)pyridin-3-yl]ethynyl}phenoxy)acetic acid]
  IC50: 52 nM

## Cc1ccc(S(=O)(=O)N2CCCCC2C)cc1C#Cc1cc(Cl)ccc1OCC(=O)O (stereo not drawn) [Example 108, [4-chloro-2-({2-methyl-5-[(2-methylpiperidin-1-yl)sulfonyl]phenyl}ethynyl)-phenoxy]acetic acid]
  IC50: 2 nM

## CCCS(=O)(=O)c1ccc(C)c(C#Cc2cc(Cl)ccc2OC(CC(C)C)C(=O)O)c1 (stereo not drawn) [Example 172, 2-(4-chloro-2-{[2-methyl-5-(propylsulfonyl)phenyl]ethynyl}phenoxy)-4-methylpentanoic acid]
  IC50: 60 nM

## O=C(O)COc1ccc(Cl)cc1C#Cc1cccc(CO)c1F [Example 28, (4-chloro-2-{[2-fluoro-3-(hydroxymethyl)phenyl]ethynyl}phenoxy)acetic acid]
  IC50: 48 nM

## CCCS(=O)(=O)c1cccc(C#Cc2cc(Cl)cnc2OCC(=O)O)c1 [Example 128, [(5-chloro-3-{[3-(propylsulfonyl)phenyl]ethynyl}pyridin-2-yl)oxy]acetic acid]
  IC50: 63 nM

## CCCCCCc1ccncc1C#Cc1cc(Cl)ccc1OCC(=O)O [Example 29, {4-chloro-2-[(4-hexylpyridin-3-yl)ethynyl]phenoxy}acetic acid]
  IC50: 51 nM

## Cc1ccc(S(=O)(=O)CCc2ccccc2)cc1C#Cc1cc(C#N)ccc1OCC(=O)O [Example 96, [4-cyano-2-({2-methyl-5-[(2-phenylethyl)sulfonyl]phenyl}ethynyl)phenoxy]acetic acid]
  IC50: 7 nM

## Cc1ccc(S(=O)(=O)Cc2ccccc2)cc1C#Cc1cc(C#N)ccc1OCC(=O)O [Example 93, (2-{[5-(benzylsulfonyl)-2-methylphenyl]ethynyl}-4-cyanophenoxy)acetic acid]
  IC50: 13 nM

## CC(C)S(=O)(=O)c1cc(C#Cc2cc(Cl)ccc2OCC(=O)O)ccc1C(=O)N1CCOCC1 [Example 167, (4-chloro-2-{[3-(isopropylsulfonyl)-4-(morpholin-4-ylcarbonyl)phenyl]ethynyl}phenoxy)acetic acid]
  IC50: 100 nM

## O=C(O)COc1ccccc1C#Cc1ccccc1Cl [Example 45, {2-[(2-chlorophenyl)ethynyl]phenoxy}acetic acid]
  IC50: 958 nM

## O=C(O)COc1ccc(Cl)cc1C#Cc1cncc(S(=O)(=O)NCCO)c1 [Example 46, {4-chloro-2-[(5-{[(2-hydroxyethyl)amino]sulfonyl}pyridin-3-yl)ethynyl]phenoxy}acetic acid]
  IC50: 323 nM

## Cc1ccc(S(=O)(=O)CCCO)cc1C#Cc1cc(C#N)ccc1OCC(=O)O [Example 73, [4-cyano-2-({5-[(3-hydroxypropyl)sulfonyl]-2-methylphenyl}ethynyl)phenoxy]acetic acid]
  IC50: 57 nM

## CS(=O)(=O)c1cncc(C#Cc2cc(Cl)ccc2OCC(=O)O)c1 [Example 36, (4-chloro-2-{[5-(methylsulfonyl)pyridin-3-yl]ethynyl}phenoxy)acetic acid]
  IC50: 75 nM

## Cn1ccnc1C#Cc1cc(Cl)ccc1OCC(=O)O [Example 11, {4-chloro-2-[(1-methyl-1H-imidazol-2-yl)ethynyl]phenoxy}acetic acid]
  IC50: 1770 nM

## CCCS(=O)(=O)c1cccc(C#Cc2cc(F)ccc2OCC(=O)O)c1 [Example 99, (4-fluoro-2-{[3-(propylsulfonyl)phenyl]ethynyl}phenoxy)acetic acid]
  IC50: 79 nM

## CCCN(CC)C(=O)c1ccc(C#Cc2cc(Cl)ccc2OCC(=O)O)cc1S(=O)(=O)C(C)C [Example 166, (4-chloro-2-{[4-{[ethyl(propyl)amino]carbonyl}-3-(isopropylsulfonyl)phenyl]ethynyl}phenoxy)acetic acid]
  IC50: 43 nM

## Cc1ccc(S(=O)(=O)N(C)C2CCCC2)cc1C#Cc1cc(Cl)ccc1OCC(=O)O [Example 121, {4-chloro-2-[(5-{[cyclopentyl(methyl)amino]sulfonyl}-2-methylphenyl)ethynyl]phenoxy}acetic acid]
  IC50: 8 nM

## CS(=O)(=O)c1ccc(N2CCCCC2)c(C#Cc2cc(C#N)ccc2OCC(=O)O)c1 [Example 62, (4-cyano-2-{[5-(methylsulfonyl)-2-piperidin-1-ylphenyl]ethynyl}phenoxy)acetic acid]
  IC50: 202 nM

## O=C(O)COc1ccc(Cl)cc1C#Cc1cc(S(=O)(=O)C(F)(F)F)ccc1Cl [Example 130, [4-chloro-2-({2-chloro-5-[(trifluoromethyl)sulfonyl]phenyl}ethynyl)phenoxy]acetic acid]
  IC50: 9 nM

## Cc1ccc(S(=O)(=O)c2ccccc2)cc1C#Cc1cc(C#N)ccc1OCC(=O)O [Example 94, (4-cyano-2-{[2-methyl-5-(phenylsulfonyl)phenyl]ethynyl}phenoxy)acetic acid]
  IC50: 11 nM

## CCCS(=O)(=O)c1cccc(C#Cc2cc(-c3cccs3)ccc2OCC(=O)O)c1 [Example 134, [2-{[3-(propylsulfonyl)phenyl]ethynyl}-4-(2-thienyl)phenoxy]acetic acid]
  IC50: 15 nM

## O=C(O)COc1ccc(Cl)cc1C#Cc1ccc2c(c1)S(=O)(=O)CC2 [Example 155, {4-chloro-2-[(1,1-dioxido-2,3-dihydro-1-benzothien-6-yl)ethynyl]phenoxy}acetic acid]
  IC50: 29 nM

## CCCN(CCC)S(=O)(=O)c1ccc(C)c(C#Cc2cc(Cl)ccc2OCC(=O)O)c1 [Example 116, [4-chloro-2-({5-[(dipropylamino)sulfonyl]-2-methylphenyl}ethynyl)phenoxy]acetic acid]
  IC50: 8 nM

## O=C(O)COc1ccc(Cl)cc1C#Cc1ccccc1 [Example 1, [4-chloro-2-(phenylethynyl)phenoxy]acetic acid]
  IC50: 76 nM

## CS(=O)(=O)c1ccc(N2CCCCC2)c(C#Cc2cc(Cl)ccc2OCC(=O)O)c1 [Example 57, (4-chloro-2-{[5-(methylsulfonyl)-2-piperidin-1-ylphenyl]ethynyl}phenoxy)acetic acid]
  IC50: 280 nM

## Cc1ccc(S(=O)(=O)Cc2ccccc2)cc1C#Cc1cc(Cl)ccc1OCC(=O)O [Example 91, (2-{[5-(benzylsulfonyl)-2-methylphenyl]ethynyl}-4-chlorophenoxy)acetic acid]
  IC50: 7 nM

## N#Cc1ccc(OCC(=O)O)c(C#Cc2ccccc2Cl)c1 [Example 23, {2-[(2-chlorophenyl)ethynyl]-4-cyanophenoxy}acetic acid]
  IC50: 30 nM

## CN(C)C(=O)c1ccc(C#Cc2cc(Cl)ccc2OCC(=O)O)cc1 [Example 125, [4-chloro-2-({4-[(dimethylamino)carbonyl]phenyl}ethynyl)phenoxy]acetic acid]
  IC50: 57 nM

## CS(=O)(=O)c1ccc(Cl)c(C#Cc2cc(C#N)ccc2OCC(=O)O)c1 [Example 61, (2-{[2-chloro-5-(methylsulfonyl)phenyl]ethynyl}-4-cyanophenoxy)acetic acid]
  IC50: 8 nM
